Test systems include HCT-15 colon; TK-10 renal; PC-3 prostate; OVCAR-3 ovarian; SF-295 CNS; KM12 colon; HL-60(TB) leukemia; DU-145 prostate; HOP-62 NSCLC; SNB-75 CNS.
Common to all, as to experiment: NCI tumour cell line growth inhibition, 48 h

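Cells were grown in 96-well plates and exposed to each compound for 48 hours at five concentrations; endpoints were interpolated linearly between bracketing concentrations, or set to the highest concentration if not reached. Abbreviation: GI50, concentration required for 50% inhibition of growth. TGI is the concentration that stops growth completely.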 Bounds are passed on as bounds.

For the compound `Nc1c(C(=O)Nc2ccccn2)sc2nc3c(cc12)CCCCCC3`, the GI50 was 0.254 µM with HCT-15 colon; 2.87 µM with TK-10 renal; 1.54 µM in the experiment on PC-3 prostate; 0.626 µM in the experiment with OVCAR-3 ovarian; 0.426 µM in the experiment with SF-295 CNS; 0.511 µM with KM12 colon. Moreover, the GI50 was 0.14 µM in the experiment with HL-60(TB) leukemia, 1.18 µM with DU-145 prostate, 1.55 µM in the experiment with HOP-62 NSCLC and 0.649 µM with SNB-75 CNS. Further, the TGI is 11.1 µM in the experiment with HCT-15 colon; 10.3 µM in the experiment with TK-10 renal; 12.2 µM with PC-3 prostate; 2.47 µM with OVCAR-3 ovarian; 5.43 µM in the experiment on SF-295 CNS; over 50 µM in the experiment with KM12 colon. Moreover, the TGI is 1.43 µM with HL-60(TB) leukemia, 5.77 µM with DU-145 prostate, 11 µM in the experiment on HOP-62 NSCLC and 21.6 µM with SNB-75 CNS.
As for `Nc1n[nH]c2ccc([C@@H]3Nc4c(F)cc5[nH]ncc5c4[C@H]4C5CCC(C5)[C@@H]34)cc12` (stereo not given in full), the GI50 in the experiment with HCT-15 colon is 0.222 µM; with TK-10 renal, 5.6 µM; in the experiment with PC-3 prostate, 0.331 µM; with OVCAR-3 ovarian, 0.216 µM; in the experiment on SF-295 CNS, 0.11 µM; with KM12 colon it was 0.287 µM. Besides, the GI50 in the experiment with HL-60(TB) leukemia is 0.243 µM; in the experiment on DU-145 prostate, 0.419 µM; in the experiment with HOP-62 NSCLC, 0.432 µM; in the experiment with SNB-75 CNS, 0.0993 µM. The TGI in the experiment on HCT-15 colon is over 41.5 µM; in the experiment with TK-10 renal, over 79.4 µM; with PC-3 prostate it was over 46.2 µM; in the experiment on OVCAR-3 ovarian, 0.735 µM; in the experiment on SF-295 CNS, 18.4 µM; in the experiment on KM12 colon, 4.87 µM. For the same compound, the TGI in the experiment with HL-60(TB) leukemia was 0.642 µM; in the experiment with DU-145 prostate it was over 46.2 µM; with HOP-62 NSCLC, 38.5 µM; in the experiment on SNB-75 CNS it was 7.25 µM.
On to `O=[N+]([O-])c1ccc(/C=C\c2ccc3c(c2)OCO3)c([N+](=O)[O-])c1`, for which the TGI with HCT-15 colon was 37.3 µM; with TK-10 renal it was 46.3 µM; with PC-3 prostate, 63.4 µM; with OVCAR-3 ovarian, 43.1 µM; in the experiment with SF-295 CNS, 59.1 µM; with KM12 colon, 54 µM. Besides, the TGI came out at 39 µM with HL-60(TB) leukemia, 47 µM in the experiment on DU-145 prostate, 69 µM in the experiment on HOP-62 NSCLC and 31.5 µM in the experiment on SNB-75 CNS.
For the compound `Cc1ccc(O)cc1Nc1ccnc2cc(-c3ccccn3)ccc12`, the GI50 in the experiment on HCT-15 colon was 2.44 µM; with TK-10 renal, 1.36 µM; in the experiment with PC-3 prostate it was 3.08 µM; in the experiment with OVCAR-3 ovarian it was 2.14 µM; in the experiment with SF-295 CNS it was 3.12 µM; in the experiment on KM12 colon, 3.01 µM. The GI50 in the experiment with HL-60(TB) leukemia is 4.69 µM; in the experiment with DU-145 prostate it was 1.38 µM; in the experiment with HOP-62 NSCLC, 3.48 µM; with SNB-75 CNS, 0.405 µM. Also, the TGI was 6.79 µM with HCT-15 colon; 4.23 µM in the experiment with TK-10 renal; 10.4 µM with PC-3 prostate; 6.36 µM in the experiment with OVCAR-3 ovarian; 6.89 µM in the experiment with SF-295 CNS; 6.57 µM in the experiment with KM12 colon. The TGI was 9.53 µM in the experiment on HL-60(TB) leukemia, 8.28 µM in the experiment with DU-145 prostate, 8.59 µM with HOP-62 NSCLC and 3.43 µM in the experiment on SNB-75 CNS.
As for `CC/C(=C(/c1ccc(/C=C/C(=O)O)cc1)c1ccc2[nH]ncc2c1)c1ccc(F)cc1Cl`, the GI50 in the experiment with HCT-15 colon was 7.45 µM; in the experiment with TK-10 renal, 15.9 µM; in the experiment with PC-3 prostate, 7.95 µM; in the experiment with OVCAR-3 ovarian it was 11.8 µM; in the experiment with SF-295 CNS, 7.81 µM; in the experiment with KM12 colon it was 6.79 µM. The GI50 was 9.3 µM with HL-60(TB) leukemia, 14.4 µM in the experiment with DU-145 prostate, 9.98 µM in the experiment with HOP-62 NSCLC and 6.91 µM with SNB-75 CNS. In addition, the TGI in the experiment on HCT-15 colon worked out at 22 µM; in the experiment on TK-10 renal, 33.4 µM; with PC-3 prostate, 21.6 µM; with OVCAR-3 ovarian it was 24.9 µM; with SF-295 CNS it was 21.1 µM; with KM12 colon, 21.5 µM. In addition, the TGI in the experiment with HL-60(TB) leukemia was 31 µM; with DU-145 prostate, 27.6 µM; in the experiment on HOP-62 NSCLC, 26.5 µM; in the experiment on SNB-75 CNS, 26.3 µM.
For `CN(C)CCS(=O)(=O)Nc1cc(-c2ccc3ncnc(Nc4ccc(F)c(Cl)c4)c3c2)cnc1Cl`, the GI50 in the experiment on HCT-15 colon is 1.11 µM; in the experiment with TK-10 renal, 0.188 µM; in the experiment with PC-3 prostate, 0.536 µM; in the experiment with OVCAR-3 ovarian, 0.22 µM; in the experiment on SF-295 CNS, 0.515 µM; in the experiment on KM12 colon, 1.46 µM. Besides, the GI50 was 1.33 µM in the experiment with HL-60(TB) leukemia, 0.566 µM in the experiment with DU-145 prostate, 0.473 µM in the experiment on HOP-62 NSCLC and 0.282 µM in the experiment with SNB-75 CNS. Moreover, the TGI with HCT-15 colon is 4.36 µM; in the experiment on TK-10 renal, 1.31 µM; in the experiment on PC-3 prostate it was over 100 µM; in the experiment with OVCAR-3 ovarian, 1.2 µM; with SF-295 CNS, over 100 µM; in the experiment on KM12 colon, 4.25 µM. For the same compound, the TGI in the experiment with HL-60(TB) leukemia was 9.15 µM; in the experiment on DU-145 prostate it was over 37.3 µM; in the experiment with HOP-62 NSCLC it was over 100 µM; in the experiment with SNB-75 CNS it was over 100 µM.
In the case of `Oc1ccc(-c2[nH]c3ccccc3c2-c2nc3ccccc3o2)cc1`, the GI50 in the experiment with HCT-15 colon is 2.97 µM; with TK-10 renal, 5.49 µM; with PC-3 prostate, 3.35 µM; in the experiment with OVCAR-3 ovarian, 3.05 µM; in the experiment with SF-295 CNS it was 4.48 µM; in the experiment with KM12 colon, 2.05 µM. The GI50 with HL-60(TB) leukemia is 12.1 µM; in the experiment with DU-145 prostate, 5.69 µM; in the experiment with HOP-62 NSCLC, 5.01 µM; in the experiment on SNB-75 CNS it was 1.44 µM. Further, the TGI with HCT-15 colon came out at 13.1 µM; with TK-10 renal, 16.8 µM; in the experiment with PC-3 prostate it was 18.5 µM; in the experiment with OVCAR-3 ovarian, 9.8 µM; in the experiment with SF-295 CNS, 19.4 µM; in the experiment on KM12 colon it was 6.95 µM. The TGI in the experiment with HL-60(TB) leukemia stood at 49.5 µM; in the experiment on DU-145 prostate, 18.3 µM; in the experiment on HOP-62 NSCLC it was 18.2 µM; in the experiment on SNB-75 CNS it was 10.4 µM.
For the compound `NCC(Cc1ccccc1)P(=O)(O)O` (stereo not given), the TGI in the experiment with HCT-15 colon, with TK-10 renal, in the experiment with PC-3 prostate, in the experiment with OVCAR-3 ovarian, in the experiment on SF-295 CNS and in the experiment with KM12 colon was over 100 µM throughout. Also, the TGI in the experiment on HL-60(TB) leukemia, in the experiment on DU-145 prostate, in the experiment with HOP-62 NSCLC and in the experiment with SNB-75 CNS was over 100 µM each time.
